{
  "source": "patent US4036979A",
  "about": "“Compositions containing 4,5,6,7-tetrahydrobenz[b]thien-4-yl-ureas or derivatives and methods of enhancing growth rate” (American Cyanamid Company, priority 1976, dated 1977)",
  "data": [
    {"assay": "Mouse Growth Regulant Tests (12-day weight gain over controls, compound in diet)", "assay_type": "in vivo, CFI female mice", "conditions": "Mus musculus, feed or water, 288 h, Table IX; 400 ppm in diet", "method": "(§1) CFI female mice from Carworth Farms are received when they are six weeks old. They are housed ten to a cage in air-conditioned rooms (72° F. to 76° F.) with automatically controlled lights, 14 hours on and 10 hours off. The basal diet used in these studies is Purina Laboratory Chow (see description below), which is supplied ad libitum. Water is also allowed ad libitum.\n(§2) Thirteen days after arrival, the mice are weighed in groups of ten and assigned at random to the different treatments. Twelve days later the mice are weighed again and the experiment terminated. At least three cages (30 mice) of untreated controls are included in each test. Test data are provided in Tables VI, VII, VIII, and IX below wherein data are reported as percent weight gain over controls. Unless otherwise indicated in these tables, all compounds tested were dl-racemic mixtures. The following is a description of the diet to which the growth promoting compounds were added.", "units": {"change in vivo at 400 ppm": "%"}, "values": [
      {"smiles": "CNC(=O)NC1CCCCc2sccc21", "note": "(centres unmarked) [Table IX: O,H,H,CH3, 1-methyl-3-(5,6,7,8-tetrahydro-4H-cyclohepta[b]thien-4-yl)urea]", "change in vivo at 400 ppm": 41}
    ]},
    {"assay": "Mouse Growth Regulant Tests (12-day weight gain over controls, compound in diet)", "assay_type": "in vivo, CFI female mice", "conditions": "Mus musculus, feed or water, 288 h, Table VI; 50 ppm in diet", "method": "as §1, §2", "units": {"change in vivo at 50 ppm": "%"}, "values": [
      {"smiles": "CCNC(=O)NC1CCCc2sccc21", "note": "(centres unmarked) [Table VI: O,H,H,H,H,C2H5, 1-ethyl-3-(4,5,6,7-tetrahydrobenzo[b]thien-4-yl)urea]", "change in vivo at 50 ppm": 40.3}
    ]},
    {"assay": "Mouse Growth Regulant Tests (12-day weight gain over controls, compound in diet)", "assay_type": "in vivo, CFI female mice", "conditions": "Mus musculus, feed or water, 288 h, Table VI; 200 ppm in diet", "method": "as §1, §2", "units": {"change in vivo at 200 ppm": "%"}, "values": [
      {"smiles": "CCNC(=O)NC1CCCc2sccc21", "note": "(centres unmarked) [Table VI: O,H,H,H,H,C2H5, 1-ethyl-3-(4,5,6,7-tetrahydrobenzo[b]thien-4-yl)urea]", "change in vivo at 200 ppm": 87.6}
    ]},
    {"assay": "Mouse Growth Regulant Tests (12-day weight gain over controls, compound in diet)", "assay_type": "in vivo, CFI female mice", "conditions": "Mus musculus, feed or water, 288 h, Table VI; 400 ppm in diet", "method": "as §1, §2", "units": {"change in vivo at 400 ppm": "%"}, "values": [
      {"smiles": "CCNC(=O)NC1CCCc2sccc21", "note": "(centres unmarked) [Table VI: O,H,H,H,H,C2H5, 1-ethyl-3-(4,5,6,7-tetrahydrobenzo[b]thien-4-yl)urea]", "change in vivo at 400 ppm": 87.6},
      {"smiles": "O=C(Nc1nccs1)NC1CCCc2sccc21", "note": "(centres unmarked)", "change in vivo at 400 ppm": 11},
      {"smiles": "O=C(Nc1ccc(Cl)cc1)NC1CCCc2sccc21", "note": "(centres unmarked)", "change in vivo at 400 ppm": 21},
      {"smiles": "CCC(C)NC(=O)NC1CCCc2sc(C)cc21", "note": "(centres unmarked) [Table VI: O,CH3,H,H,2-butyl,H]", "change in vivo at 400 ppm": 2},
      {"smiles": "CCOC(=O)NC(=S)NC1CCCc2sccc21", "note": "(centres unmarked) [Table VI: S,H,H,H,H,CO2C2H5]", "change in vivo at 400 ppm": 22.3},
      {"smiles": "CNC(=O)NC1(C)CCCc2sccc21", "note": "(centres unmarked) [1-methyl-3-(4-methyl-4,5,6,7-tetrahydrobenzo[b]thien-4-yl)urea]", "change in vivo at 400 ppm": 39},
      {"smiles": "CCCCCCCCNC(=S)NC1CCCc2sccc21", "note": "(centres unmarked) [Table VI: S,H,H,H,H,n-C8H17]", "change in vivo at 400 ppm": 16},
      {"smiles": "Cc1sc2c(c1C)C(NC(N)=O)CCC2", "note": "(centres unmarked) [Table VI: O,CH3,CH3,H,H,H]", "change in vivo at 400 ppm": 0},
      {"smiles": "O=C(NC1CCCc2sccc21)N1CCCC1", "note": "(centres unmarked) [Table VI: O,H,H,H,CH2CH2CH2CH2]", "change in vivo at 400 ppm": 18},
      {"smiles": "COc1ccc(NC(=S)NC2CCCc3sccc32)cc1", "note": "(centres unmarked)", "change in vivo at 400 ppm": -1.4},
      {"smiles": "CCC(C)NC(=O)NC1CCCc2sc(C)c(C)c21", "note": "(centres unmarked) [Table VI: O,CH3,CH3,H,2-butyl,H]", "change in vivo at 400 ppm": 3},
      {"smiles": "CCONC(=O)NC1CCCc2sccc21", "note": "(centres unmarked) [Table VI: O,H,H,H,H,OC2H5, 1-ethoxy-3-(4,5,6,7-tetrahydrobenzo[b]-thien-4-yl)urea]", "change in vivo at 400 ppm": 61},
      {"smiles": "CNC(=O)NC1CCC(C)(C)c2sccc21", "note": "(centres unmarked) [1-methyl-3-(7,7-dimethyl-4,5,6,7-tetrahydrobenzo-[b]thien-4-yl)urea]", "change in vivo at 400 ppm": 15},
      {"smiles": "Cc1csc2c1C(NC(N)=O)CCC2", "note": "(centres unmarked) [Table VI: O,H,CH3,H,H,H, 3-methyl-4,5,6,7-tetrahydrobenzo[b]thien-4-ylurea]", "change in vivo at 400 ppm": 26},
      {"smiles": "S=C(NC1CC1)NC1CCCc2sccc21", "note": "(centres unmarked)", "change in vivo at 400 ppm": 32},
      {"smiles": "CONC(=O)NC1CCCc2sccc21", "note": "(centres unmarked) [Table VI: O,H,H,H,H,OCH3, 1-methoxy-3-(4,5,6,7-tetrahydrobenzo[b]thien-4-yl)urea]", "change in vivo at 400 ppm": 68.6},
      {"smiles": "CN(C)C(=O)NC1CCCc2sccc21", "note": "(centres unmarked) [Table VI: O,H,H,H,CH3,CH3, 1,1-dimethyl-3-(4,5,6,7-tetrahydrobenzo[b]thien-4-yl)urea]", "change in vivo at 400 ppm": 55.1},
      {"smiles": "O=C(NC1CCc2ccccc21)NC1CCCc2sccc21", "note": "(centres unmarked)", "change in vivo at 400 ppm": 8},
      {"smiles": "O=C(NCc1cccnc1)NC1CCCc2sccc21", "note": "(centres unmarked)", "change in vivo at 400 ppm": 48},
      {"smiles": "NC(=O)NC1CCCc2sc([N+](=O)[O-])cc21", "note": "(centres unmarked) [Table VI: O,NO2,H,H,H,H, 2-nitro-4,5,6,7-tetrahydrobenzo[b]thien-4-ylurea]", "change in vivo at 400 ppm": 17},
      {"smiles": "CCCCNC(=S)NC1CCCc2sccc21", "note": "(centres unmarked) [Table VI: S,H,H,H,H,n-butyl]", "change in vivo at 400 ppm": 75}
    ]},
    {"assay": "Mouse Growth Regulant Tests (12-day weight gain over controls, compound in diet)", "assay_type": "in vivo, CFI female mice", "conditions": "Mus musculus, feed or water, 288 h, Table VII; 400 ppm in diet", "method": "as §1, §2", "units": {"change in vivo at 400 ppm": "%"}, "values": [
      {"smiles": "CCCCCCCCCCCCNC(=O)NC1CCC(=O)c2sccc21", "note": "(centres unmarked) [Table VII: O,H,n-C12H25, 1-n-dodecyl-3-(4,5,6,7-tetrahydro-7-oxobenzo[b]thien-4-yl)urea]", "change in vivo at 400 ppm": 4.1},
      {"smiles": "COCNC(=O)NC1CCC(=O)c2sccc21", "note": "(centres unmarked) [Table VII: O,H,CH2OCH3, 1-(methoxymethyl)-3-(4,5,6,7-tetrahydro-7-oxobenzo[b]thien-4-yl)urea]", "change in vivo at 400 ppm": 143},
      {"smiles": "NC(=O)NC1CCC(=O)c2sc(Br)cc21", "note": "(centres unmarked) [2-bromo-4,5,6,7-tetrahydro-7-oxobenzo[b]thien-4-ylurea]", "change in vivo at 400 ppm": 35.9}
    ]},
    {"assay": "Mouse Growth Regulant Tests (12-day weight gain over controls, compound in diet)", "assay_type": "in vivo, CFI female mice", "conditions": "Mus musculus, feed or water, 288 h, Table VIII; 200 ppm in diet", "method": "as §1, §2", "units": {"change in vivo at 200 ppm": "%"}, "values": [
      {"smiles": "CON(C)C(=O)NC1CCC(O)c2sccc21", "note": "(centres unmarked) [Table VIII: O,CH3,OCH3, 1-methyl-1-methoxy-3-(7-hydroxy-4,5,6,7-tetrahydrobenzo[b]-thien-4-yl)urea]", "change in vivo at 200 ppm": 60.5},
      {"smiles": "CCNC(=O)NC1CCC(O)c2sccc21", "note": "(centres unmarked) [Table VIII: O,H,C2H5, 1-ethyl-3-(7-hydroxy-4,5,6,7-tetrahydrobenzo[b]thien-4-yl)urea]", "change in vivo at 200 ppm": 73.4}
    ]}
  ]
}
